# Reference: PubChem BioAssay AID1259411 (Chemical Carcinogenesis Research Information System (CCRIS), 2018)
# Calls of active or inactive are those of the source. The rule behind the calls is not given here.
# System: rodent carcinogenicity bioassays, tumor incidence
# Experiment: CCRIS carcinogenicity studies
# Settings: Dose: 0
# Method in brief: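 Archive of carcinogenicity, mutagenicity, tumor promotion and tumor inhibition results drawn from journals, NCI reports and other sources, expert-reviewed; covers 1985-2011 and is no longer updated.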
compound,measurement,setting,value
O=NN1CCC1,carcinogen call,"Species: HAMSTER, Strain/Sex: SYRIAN/MALE, Route: INTRAGASTRIC, 50 MG/ML IN 0.2 ML STERILIZED WATER 1/WK FOR 50 WK (TOTAL DOSE 500 MG) (STUDY DURATION: LIFESPAN), Tumor Site: Type of Lesion: LIVER: ADENOMA, HEPATOCELLULAR CARCINOMA, HEMANGIOSARCOMA, NOSE: CARCINOMA",active; positive
CCNC(=O)N(CC)N=O,carcinogen call,"Species: RAT, Strain/Sex: F344/FEMALE, Route: GAVAGE, 20, 40 UMOL/WK IN CORN OIL/ETHYL ACETATE (2: 1) FOR 30 WK (LOW DOSE) OR 22.5 WK (HIGH DOSE) FOR TOTAL DOSES OF 0, 0.6, 20, 40 UMOL/WK IN CORN OIL/ETHYL ACETATE (2: 1) FOR 30 WK (LOW DOSE) OR 22.5 WK (HIGH DOSE) FOR TOTAL DOSES OF 0, 0.6, Tumor Site: Type of Lesion: MAMMARY GLAND: TUMOR",active; positive
same,carcinogen call,"Species: RAT, Strain/Sex: F344/FEMALE, Route: INTRAVESICULAR, 3 MG 2/WK FOR 30 WK (STUDY DURATION: LIFETIME), Tumor Site: Type of Lesion: MAMMARY GLAND: TUMOR, LUNG: TUMOR, ZYMBAL GLAND: TUMOR, Tumor Site: Type of Lesion: MAMMARY GLAND: TUMOR, LUNG: TUMOR, ZYMBAL GLAND: TUMOR",active; positive
same,carcinogen call,"Species: RAT, Strain/Sex: F344/FEMALE, Route: ORAL, 20, 40 UMOL/WK IN DRINKING WATER FOR 30 WK FOR TOTAL DOSES OF 0, 0.6, 1.2 MMOL (STUDY DURATION: LIFETIME), 20, 40 UMOL/WK IN DRINKING WATER FOR 30 WK FOR TOTAL DOSES OF 0, 0.6, 1.2 MMOL (STUDY DURATION: LIFETIME), Tumor Site: Type of Lesion: LUNG: TUMOR, MAMMARY GLAND: TUMOR, UTERUS: TUMOR, Tumor Site: Type of Lesion: LUNG: TUMOR, MAMMARY GLAND: TUMOR, UTERUS: TUMOR",active; positive
same,carcinogen call,"Species: RAT, Strain/Sex: F344/MALE, Route: GAVAGE, 20, 40 UMOL/WK IN CORN OIL/ETHYL ACETATE (2: 1) FOR 30 WK FOR TOTAL DOSES OF 0, 0.6, 1.2 MMOL (STUDY DURATION: LIFETI, 20, 40 UMOL/WK IN CORN OIL/ETHYL ACETATE (2: 1) FOR 30 WK FOR TOTAL DOSES OF 0, 0.6, 1.2 MMOL (STUDY DURATION: LIFETI, Tumor Site: Type of Lesion: LUNG: TUMOR, TESTIS: MESOTHELIOMA, NERVOUS SYSTEM: TUMOR, ZYMBAL GLAND: TUMOR, COLON: TUMOR, Tumor Site: Type of Lesion: LUNG: TUMOR, TESTIS: MESOTHELIOMA, NERVOUS SYSTEM: TUMOR, ZYMBAL GLAND: TUMOR, COLON: TUMOR",active; positive
same,carcinogen call,"Species: RAT, Strain/Sex: F344/MALE, Route: ORAL, 20, 40 UMOL/WK IN DRINKING WATER FOR 30 WK FOR TOTAL DOSES OF 0, 0.6, 1.2 MMOL (STUDY DURATION: LIFETIME), 20, 40 UMOL/WK IN DRINKING WATER FOR 30 WK FOR TOTAL DOSES OF 0, 0.6, 1.2 MMOL (STUDY DURATION: LIFETIME), Tumor Site: Type of Lesion: LUNG: TUMOR, TESTIS: MESOTHELIOMA, COLON: TUMOR, SKIN: TUMOR, Tumor Site: Type of Lesion: LUNG: TUMOR, TESTIS: MESOTHELIOMA, COLON: TUMOR, SKIN: TUMOR",active; positive
O=[N+]([O-])c1ccc(O)cc1,carcinogen call,"Species: MOUSE, Strain/Sex: SWISS/FEMALE, Route: DERMAL, 40, 80, 160 MG/KG IN ACETONE 3 D/WK FOR 78 WK (STUDY DURATION: 18 MO), 40, 80, 160 MG/KG IN ACETONE 3 D/WK FOR 78 WK (STUDY DURATION: 18 MO)",inactive; negative
same,carcinogen call,"Species: MOUSE, Strain/Sex: SWISS/MALE, Route: DERMAL, 40, 80, 160 MG/KG IN ACETONE 3 D/WK FOR 78 WK (STUDY DURATION: 18 MO), 40, 80, 160 MG/KG IN ACETONE 3 D/WK FOR 78 WK (STUDY DURATION: 18 MO)",inactive; negative
C=C(C)c1ccccc1,carcinogen call,"Species: Mouse, Strain/Sex: B6C3F1/Female (50/group), Route: Inhalation, 100, 300, 600 ppm for 6 hr/d, 5 d/wk, except holidays, for 105 wk, 100, 300, 600 ppm for 6 hr/d, 5 d/wk, except holidays, for 105 wk, Tumor Site: Type of Lesion: Liver: hepatocelllular carcinoma (3/50, 9/50, 6/50, 18/50), hepatocellular adenoma and carcinoma combined (13/50, 26/50",active; positive (ntp reports as clear evidence)
same,carcinogen call,"Species: Mouse, Strain/Sex: B6C3F1/Male (50/group), Route: Inhalation, 100, 300, 600 ppm for 6 hr/d, 5 d/wk, except holidays, for 105 wk, 100, 300, 600 ppm for 6 hr/d, 5 d/wk, except holidays, for 105 wk, Tumor Site: Type of Lesion: Liver: hepatocellular adenoma and carcinoma combined (28/50, 36/50, 33/50, 37/50 (considered equivocal))",inactive; negative; p value not significant (ntp reports as equivocal evidence)
same,carcinogen call,"Species: Rat, Strain/Sex: F344/N / Female (50/group), Route: Inhalation, 100, 300, 1000 ppm for 6 hr/d, 5 d/wk, except holidays, for 105 wk, 100, 300, 1000 ppm for 6 hr/d, 5 d/wk, except holidays, for 105 wk",inactive; negative
same,carcinogen call,"Species: Rat, Strain/Sex: F344/N / Male (50/group), Route: Inhalation, 100, 300, 1000 ppm for 6 hr/d, 5 d/wk, except holidays, for 105 wk, 100, 300, 1000 ppm for 6 hr/d, 5 d/wk, except holidays, for 105 wk, Tumor Site: Type of Lesion: Kidney: renal tubule adenoma and carcinoma combined (0/50, 0/50, 3/50, 7/50 (single and step sections)) Mononuclear cell",active; positive (ntp reports as some evidence)
CC(O)CNC(=O)N(CCCl)N=O (stereo unspecified),carcinogen call,"Species: RAT, Strain/Sex: F344/FEMALE, Route: ORAL, 18 MG/L IN DRINKING WATER 5 D/WK FOR 30 WK (STUDY DURATION: LIFETIME)",inactive; negative
same,carcinogen call,"Species: RAT, Strain/Sex: F344/MALE, Route: ORAL, 18 MG/L IN DRINKING WATER 5 D/WK FOR 30 WK (STUDY DURATION: LIFETIME), Tumor Site: Type of Lesion: LIVER: TUMOR, LUNG: TUMOR",active; positive
O[C@@H]1C=Cc2c(ccc3cc4ccccc4nc23)[C@H]1O,carcinogen call,"Species: MOUSE, Strain/Sex: SWISS/FEMALE, Route: INTRAPERITONEAL, 1.05 UMOL GIVEN AS 150 NMOL IN 5 µL DMSO WITHIN 24 HR OF BIRTH, 300 NMOL IN 10 µL DMSO ON D 8 OF LIFE, AND 600 NMOL I, Tumor Site: Type of Lesion: LUNG: ADENOMA",active; positive
same,carcinogen call,"Species: MOUSE, Strain/Sex: SWISS/MALE, Route: INTRAPERITONEAL, 1.05 UMOL GIVEN AS 150 NMOL IN 5 µL DMSO WITHIN 24 HR OF BIRTH, 300 NMOL IN 10 µL DMSO ON D 8 OF LIFE, AND 600 NMOL I, Tumor Site: Type of Lesion: LUNG: ADENOMA, LIVER: NEOPLASTIC NODULE",active; positive
